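Results reflect a 48-hour exposure of cells in 96-well plates to compound at five concentrations. GI50 = concentration required for 50% inhibition of growth. TGI denotes the concentration required for complete inhibition of growth.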
How the values were obtained:
Test in all cases: NCI-60 cell line screen, 48 h
COLO 205 colon = system: COLO 205 colon
OVCAR-4 ovarian = system: OVCAR-4 ovarian
CCRF-CEM leukemia = system: CCRF-CEM leukemia
MALME-3M melanoma = system: MALME-3M melanoma
OVCAR-3 ovarian = system: OVCAR-3 ovarian
A549 NSCLC = system: A549 NSCLC
HCT-15 colon = system: HCT-15 colon
MOLT-4 leukemia = system: MOLT-4 leukemia
SN12C renal = system: SN12C renal
PC-3 prostate = system: PC-3 prostate
UACC-62 melanoma = system: UACC-62 melanoma
TK-10 renal = system: TK-10 renal
SF-539 CNS = system: SF-539 CNS
SNB-19 CNS = system: SNB-19 CNS
SK-MEL-28 melanoma = system: SK-MEL-28 melanoma
NCI-H226 lung = system: NCI-H226 lung
UACC-257 melanoma = system: UACC-257 melanoma
NCI-H522 lung = system: NCI-H522 lung
SF-295 CNS = system: SF-295 CNS
DU-145 prostate = system: DU-145 prostate
CAKI-1 renal = system: CAKI-1 renal
NCI-H460 lung = system: NCI-H460 lung
SK-OV-3 ovarian = system: SK-OV-3 ovarian
SW-620 colon = system: SW-620 colon
MDA-MB-231 breast = system: MDA-MB-231 breast
HS 578T breast = system: HS 578T breast
U251 CNS = system: U251 CNS
OVCAR-5 ovarian = system: OVCAR-5 ovarian
BT-549 breast = system: BT-549 breast

CCOc1ccc(C(=O)Nc2ncc(Cc3ccc(F)cc3)s2)cc1
GI50 (COLO 205 colon): 164 nM
GI50 (OVCAR-4 ovarian): 1630 nM
TGI (OVCAR-4 ovarian): > 100000 nM
GI50 (CCRF-CEM leukemia): 108 nM
TGI (CCRF-CEM leukemia): > 52700 nM
GI50 (MALME-3M melanoma): 1130 nM
TGI (MALME-3M melanoma): > 100000 nM
GI50 (OVCAR-3 ovarian): 162 nM
TGI (OVCAR-3 ovarian): > 22200 nM
GI50 (A549 NSCLC): 257 nM
TGI (A549 NSCLC): > 100000 nM
GI50 (HCT-15 colon): 49.4 nM
TGI (HCT-15 colon): > 100000 nM
GI50 (MOLT-4 leukemia): 151 nM
TGI (MOLT-4 leukemia): > 100000 nM
GI50 (SN12C renal): 345 nM
TGI (SN12C renal): > 100000 nM
GI50 (PC-3 prostate): 169 nM
TGI (PC-3 prostate): > 100000 nM
GI50 (UACC-62 melanoma): 107 nM
TGI (UACC-62 melanoma): > 100000 nM
GI50 (TK-10 renal): 29300 nM
TGI (TK-10 renal): > 75900 nM
GI50 (SF-539 CNS): 161 nM
TGI (SF-539 CNS): 2750 nM
GI50 (SNB-19 CNS): 402 nM
TGI (SNB-19 CNS): > 100000 nM
GI50 (SK-MEL-28 melanoma): 1230 nM
TGI (SK-MEL-28 melanoma): > 100000 nM
GI50 (NCI-H226 lung): 319 nM
TGI (NCI-H226 lung): 7630 nM
TGI (UACC-257 melanoma): > 100000 nM
GI50 (NCI-H522 lung): 78.1 nM
TGI (NCI-H522 lung): 375 nM
GI50 (SF-295 CNS): 144 nM
TGI (SF-295 CNS): > 33000 nM
GI50 (DU-145 prostate): 387 nM
TGI (DU-145 prostate): > 100000 nM
GI50 (CAKI-1 renal): 74.9 nM
TGI (CAKI-1 renal): > 44200 nM
GI50 (NCI-H460 lung): 113 nM
TGI (NCI-H460 lung): > 100000 nM
GI50 (SK-OV-3 ovarian): 289 nM
TGI (SK-OV-3 ovarian): > 64900 nM
GI50 (SW-620 colon): 77.8 nM
TGI (SW-620 colon): > 100000 nM
GI50 (MDA-MB-231 breast): 371 nM
TGI (MDA-MB-231 breast): > 86100 nM
GI50 (HS 578T breast): 399 nM
TGI (HS 578T breast): > 39300 nM
GI50 (U251 CNS): 230 nM
TGI (U251 CNS): > 62600 nM
GI50 (OVCAR-5 ovarian): 387 nM
TGI (OVCAR-5 ovarian): > 100000 nM
GI50 (BT-549 breast): 1730 nM
TGI (BT-549 breast): > 100000 nM
